Data as given in ChEMBL document CHEMBL1671734, “An ertapenem-resistant extended-spectrum-beta-lactamase-producing Klebsiella pneumoniae clone carries a novel OmpK36 porin variant” (2010).
Converted amounts (≈) assume the structure as drawn.

Legend:
Assay type in all cases: functional
Klebsiella pneumoniae [1] = assay: Antimicrobial activity against ESBL-positive Klebsiella pneumoniae 19039 harboring porin OmpK36V mutant gene by Etest
Klebsiella pneumoniae [2] = assay: Antimicrobial activity against ESBL-positive Klebsiella pneumoniae 25008 by Etest
Klebsiella pneumoniae [3] = assay: Antimicrobial activity against ESBL-positive Klebsiella pneumoniae 50748 harboring porin OmpK36 gene by Etest
Klebsiella pneumoniae [4] = assay: Antimicrobial activity against ESBL-positive Klebsiella pneumoniae 16855 harboring porin OmpK36 and OmpK35 genes by Etest
Klebsiella pneumoniae [5] = assay: Antimicrobial activity against ESBL-negative Klebsiella pneumoniae 299332 harboring porin OmpK36 gene by Etest
Klebsiella pneumoniae [6] = assay: Antimicrobial activity against ESBL-positive Klebsiella pneumoniae 69036 harboring porin OmpK36V mutant gene by Etest
Klebsiella pneumoniae [7] = assay: Antimicrobial activity against ESBL-positive Klebsiella pneumoniae 17049 harboring porin OmpK36V mutant gene by Etest
Klebsiella pneumoniae [8] = assay: Antimicrobial activity against ESBL-positive Klebsiella pneumoniae 29830 harboring porin OmpK36V mutant gene by Etest
Klebsiella pneumoniae [9] = assay: Antimicrobial activity against ESBL-positive Klebsiella pneumoniae 11932 harboring porin OmpK36 gene by Etest
Klebsiella pneumoniae [10] = assay: Antimicrobial activity against ESBL-positive Klebsiella pneumoniae 17829 by Etest
Klebsiella pneumoniae [11] = assay: Antimicrobial activity against ESBL-positive Klebsiella pneumoniae 31750 harboring porin OmpK36 gene by Etest
Klebsiella pneumoniae [12] = assay: Antimicrobial activity against ESBL-positive Klebsiella pneumoniae 71697 harboring porin OmpK36V mutant gene by Etest
Klebsiella pneumoniae [13] = assay: Antimicrobial activity against ESBL-negative Klebsiella pneumoniae 30018 harboring porin OmpK35 gene by Etest
Klebsiella pneumoniae [14] = assay: Antimicrobial activity against ESBL-positive Klebsiella pneumoniae 16830 harboring porin OmpK36 gene by Etest
Klebsiella pneumoniae [15] = assay: Antimicrobial activity against ESBL-positive Klebsiella pneumoniae 18260 harboring pSHA2-encoded porin OmpK36 gene by Etest
Klebsiella pneumoniae [16] = assay: Antimicrobial activity against ESBL-positive Klebsiella pneumoniae 17829 harboring pSHA2-encoded porin OmpK36 gene by Etest
Klebsiella pneumoniae [17] = assay: Antimicrobial activity against ESBL-positive Klebsiella pneumoniae 26077 harboring porin OmpK36V mutant gene by Etest
Klebsiella pneumoniae [18] = assay: Antimicrobial activity against ESBL-positive Klebsiella pneumoniae 6267 harboring porin OmpK36V mutant gene by Etest
Klebsiella pneumoniae [19] = assay: Antimicrobial activity against ESBL-positive Klebsiella pneumoniae 17830 harboring porin OmpK36V mutant gene by Etest
Klebsiella pneumoniae [20] = assay: Antimicrobial activity against ESBL-positive Klebsiella pneumoniae 17834 harboring porin OmpK36V mutant gene by Etest
Klebsiella pneumoniae [21] = assay: Antimicrobial activity against ESBL-positive Klebsiella pneumoniae 287942 harboring porin OmpK36 gene by Etest
Klebsiella pneumoniae [22] = assay: Antimicrobial activity against ESBL-positive Klebsiella pneumoniae 18260 by Etest
Klebsiella pneumoniae [23] = assay: Antimicrobial activity against ESBL-positive Klebsiella pneumoniae 18567 harboring porin OmpK36V mutant gene by Etest
Klebsiella pneumoniae [24] = assay: Antimicrobial activity against ESBL-positive Klebsiella pneumoniae 29459 harboring porin OmpK36 gene by Etest
Klebsiella pneumoniae [25] = assay: Antimicrobial activity against ESBL-positive Klebsiella pneumoniae 69928 harboring porin OmpK36V mutant gene by Etest
Klebsiella pneumoniae [26] = assay: Antimicrobial activity against ESBL-positive Klebsiella pneumoniae 18918 harboring porin OmpK36V mutant gene by Etest

CC(C)(O/N=C(\C(=O)N[C@@H]1C(=O)N2C(C(=O)[O-])=C(C[n+]3ccccc3)CS[C@H]12)c1csc(N)n1)C(=O)O [CEFTAZIDIME]
MIC (Klebsiella pneumoniae [1]): > 32 µg/mL | MIC (Klebsiella pneumoniae [2]): > 32 µg/mL | MIC (Klebsiella pneumoniae [3]): > 32 µg/mL | MIC (Klebsiella pneumoniae [4]): > 32 µg/mL | MIC (Klebsiella pneumoniae [5]): < 0.5 µg/mL | MIC (Klebsiella pneumoniae [6]): > 32 µg/mL | MIC (Klebsiella pneumoniae [7]): > 32 µg/mL | MIC (Klebsiella pneumoniae [8]): > 32 µg/mL | MIC (Klebsiella pneumoniae [9]): > 32 µg/mL | MIC (Klebsiella pneumoniae [10]): > 32 µg/mL | MIC (Klebsiella pneumoniae [11]): > 32 µg/mL | MIC (Klebsiella pneumoniae [12]): > 32 µg/mL | MIC (Klebsiella pneumoniae [13]): < 0.5 µg/mL | MIC (Klebsiella pneumoniae [14]): > 32 µg/mL | MIC (Klebsiella pneumoniae [15]): > 32 µg/mL | MIC (Klebsiella pneumoniae [16]): > 32 µg/mL | MIC (Klebsiella pneumoniae [17]): > 32 µg/mL | MIC (Klebsiella pneumoniae [18]): > 32 µg/mL | MIC (Klebsiella pneumoniae [19]): > 32 µg/mL | MIC (Klebsiella pneumoniae [20]): > 32 µg/mL | MIC (Klebsiella pneumoniae [21]): > 32 µg/mL | MIC (Klebsiella pneumoniae [22]): > 32 µg/mL | MIC (Klebsiella pneumoniae [23]): > 32 µg/mL | MIC (Klebsiella pneumoniae [24]): > 32 µg/mL | MIC (Klebsiella pneumoniae [25]): > 32 µg/mL | MIC (Klebsiella pneumoniae [26]): > 32 µg/mL

C[C@@H](O)[C@H]1C(=O)N2C(C(=O)O)=C(SCCNC=N)C[C@H]12 [IMIPENEM ANHYDROUS]
MIC (Klebsiella pneumoniae [1]): 0.19 µg/mL (≈ 0.635 µM) | MIC (Klebsiella pneumoniae [2]): 1 µg/mL (≈ 3.34 µM) | MIC (Klebsiella pneumoniae [3]): 0.25 µg/mL (≈ 0.835 µM) | MIC (Klebsiella pneumoniae [4]): 0.25 µg/mL (≈ 0.835 µM) | MIC (Klebsiella pneumoniae [5]): 0.25 µg/mL (≈ 0.835 µM) | MIC (Klebsiella pneumoniae [6]): 0.19 µg/mL (≈ 0.635 µM) | MIC (Klebsiella pneumoniae [7]): 0.25 µg/mL (≈ 0.835 µM) | MIC (Klebsiella pneumoniae [8]): 0.19 µg/mL (≈ 0.635 µM) | MIC (Klebsiella pneumoniae [9]): 0.19 µg/mL (≈ 0.635 µM) | MIC (Klebsiella pneumoniae [10]): 12 µg/mL (≈ 40.1 µM) | MIC (Klebsiella pneumoniae [11]): 0.19 µg/mL (≈ 0.635 µM) | MIC (Klebsiella pneumoniae [12]): 0.19 µg/mL (≈ 0.635 µM) | MIC (Klebsiella pneumoniae [13]): 0.25 µg/mL (≈ 0.835 µM) | MIC (Klebsiella pneumoniae [14]): 0.125 µg/mL (≈ 0.418 µM) | MIC (Klebsiella pneumoniae [15]): 1 µg/mL (≈ 3.34 µM) | MIC (Klebsiella pneumoniae [16]): 1 µg/mL (≈ 3.34 µM) | MIC (Klebsiella pneumoniae [17]): 0.19 µg/mL (≈ 0.635 µM) | MIC (Klebsiella pneumoniae [18]): 0.5 µg/mL (≈ 1.67 µM) | MIC (Klebsiella pneumoniae [19]): 0.19 µg/mL (≈ 0.635 µM) | MIC (Klebsiella pneumoniae [20]): 0.19 µg/mL (≈ 0.635 µM) | MIC (Klebsiella pneumoniae [21]): 0.19 µg/mL (≈ 0.635 µM) | MIC (Klebsiella pneumoniae [22]): 12 µg/mL (≈ 40.1 µM) | MIC (Klebsiella pneumoniae [23]): 0.19 µg/mL (≈ 0.635 µM) | MIC (Klebsiella pneumoniae [24]): 0.19 µg/mL (≈ 0.635 µM) | MIC (Klebsiella pneumoniae [25]): 0.5 µg/mL (≈ 1.67 µM) | MIC (Klebsiella pneumoniae [26]): 0.19 µg/mL (≈ 0.635 µM)
